“And” between values parts separate entries of the source, which are not always exact repeats. Equal values may be shown once. Read-outs that look alike come from different tables or passages of the source.
Assays:
[1] = target: T1, MAP4K3 (Homo sapiens, UniProt Q8IVH8); assay: KiNativ kinase panel; format: cell-based; conditions: 1 μM, MCF-7 Cells
T1 construct: MCF7 cells were exposed to; endogenous in cells; host or cells: MCF7
T1 sequence (Q8IVH8 1-894): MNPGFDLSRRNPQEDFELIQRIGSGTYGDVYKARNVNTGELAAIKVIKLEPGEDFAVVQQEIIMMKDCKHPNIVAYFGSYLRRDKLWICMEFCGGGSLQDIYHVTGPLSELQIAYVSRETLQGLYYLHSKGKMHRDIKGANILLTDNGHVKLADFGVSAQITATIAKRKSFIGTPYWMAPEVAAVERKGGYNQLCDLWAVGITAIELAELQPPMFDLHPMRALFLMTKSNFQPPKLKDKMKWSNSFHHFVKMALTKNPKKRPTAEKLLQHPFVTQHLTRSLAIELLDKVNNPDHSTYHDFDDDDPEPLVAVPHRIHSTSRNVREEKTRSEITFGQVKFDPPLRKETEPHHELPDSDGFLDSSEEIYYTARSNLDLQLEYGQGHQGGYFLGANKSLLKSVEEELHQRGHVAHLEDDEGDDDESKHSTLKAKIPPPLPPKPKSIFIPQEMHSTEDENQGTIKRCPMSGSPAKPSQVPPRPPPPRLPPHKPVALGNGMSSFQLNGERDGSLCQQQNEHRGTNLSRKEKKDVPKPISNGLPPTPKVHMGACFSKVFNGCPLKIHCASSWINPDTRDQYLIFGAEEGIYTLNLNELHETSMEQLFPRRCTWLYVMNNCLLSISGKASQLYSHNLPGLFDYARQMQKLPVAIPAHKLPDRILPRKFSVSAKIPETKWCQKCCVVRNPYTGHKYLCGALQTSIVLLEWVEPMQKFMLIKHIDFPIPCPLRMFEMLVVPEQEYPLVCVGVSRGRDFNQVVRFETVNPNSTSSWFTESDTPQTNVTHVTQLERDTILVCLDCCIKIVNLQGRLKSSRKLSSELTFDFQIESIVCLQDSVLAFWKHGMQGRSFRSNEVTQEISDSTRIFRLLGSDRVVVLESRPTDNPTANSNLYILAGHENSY

[2] = tested on: PCTAIRE1, PCTAIRE3; assay: KiNativ kinase panel; format: cell-based, human; conditions: 1 μM, MCF-7 Cells, Lys2
[3] = Mouse pharmacokinetics, IP administration; format: in vivo; conditions: male Balb/c mice, 1 mg/kg IP, mean ± SD, n = 3
Experimental: Mouse Pharmacokinetic Studies. Male Balb/C mice were non-fasted on the day of dosing. PK […]
plasma were conducted using an AB Sciex Triple Quad 6500+ mass spectrometer coupled with a Waters UPLC system. Supernatants were collected by centrifugation after protein precipitation using MeCN containing internal standard (IS, D4-AEA). Supernatant was injected for LC- […]
μm) column. The LC mobile phase (A: 5 mM NH 4OAc in H 2O; B: MeCN/MeOH 50/50)

[4] = tested on: MAST1, MAST2; assay: KiNativ kinase panel; format: cell-based, human; conditions: 1 μM, MCF-7 Cells, Lys2
[5] = tested on: tumor p4EBP1; assay: Tumor PD after a single dose in the MCF-7 CDX model; format: in vivo, mice; conditions: for effect on tumor p4EBP1 levels: MCF-7 CDX, single dose (38, 40 ip; everolimus 5 mg/kg oral); for MCF-7 tumor PD: dose proportional duration of >80% p4EBP1 inhibition: single ip dose
[6] = target: T2, IRAK4 (Homo sapiens, UniProt Q9NWZ3); assay: KiNativ kinase panel; format: cell-based; conditions: 1 μM, MCF-7 Cells
T2 construct: MCF7 cells were exposed to; endogenous in cells; host or cells: MCF7
T2 sequence (Q9NWZ3 1-460): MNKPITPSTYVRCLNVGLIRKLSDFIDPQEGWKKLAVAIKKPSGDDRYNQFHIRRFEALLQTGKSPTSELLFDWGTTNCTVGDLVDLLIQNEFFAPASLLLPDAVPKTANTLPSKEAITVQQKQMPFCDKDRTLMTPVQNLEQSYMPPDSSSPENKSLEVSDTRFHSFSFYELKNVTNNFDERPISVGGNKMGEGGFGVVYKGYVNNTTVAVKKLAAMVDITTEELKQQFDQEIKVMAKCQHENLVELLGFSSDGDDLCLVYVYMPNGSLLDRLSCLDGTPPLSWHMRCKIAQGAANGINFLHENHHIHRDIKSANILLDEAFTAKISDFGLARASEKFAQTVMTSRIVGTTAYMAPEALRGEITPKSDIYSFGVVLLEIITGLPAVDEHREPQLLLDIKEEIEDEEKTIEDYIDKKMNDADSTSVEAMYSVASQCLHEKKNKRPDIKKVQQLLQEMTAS

[7] = target: T3, ULK3 (Homo sapiens, UniProt Q6PHR2); assay: KiNativ kinase panel; format: cell-based; conditions: 1 μM, MCF-7 Cells
T3 construct: endogenous in cells; host or cells: MCF7
T3 sequence (Q6PHR2 1-472): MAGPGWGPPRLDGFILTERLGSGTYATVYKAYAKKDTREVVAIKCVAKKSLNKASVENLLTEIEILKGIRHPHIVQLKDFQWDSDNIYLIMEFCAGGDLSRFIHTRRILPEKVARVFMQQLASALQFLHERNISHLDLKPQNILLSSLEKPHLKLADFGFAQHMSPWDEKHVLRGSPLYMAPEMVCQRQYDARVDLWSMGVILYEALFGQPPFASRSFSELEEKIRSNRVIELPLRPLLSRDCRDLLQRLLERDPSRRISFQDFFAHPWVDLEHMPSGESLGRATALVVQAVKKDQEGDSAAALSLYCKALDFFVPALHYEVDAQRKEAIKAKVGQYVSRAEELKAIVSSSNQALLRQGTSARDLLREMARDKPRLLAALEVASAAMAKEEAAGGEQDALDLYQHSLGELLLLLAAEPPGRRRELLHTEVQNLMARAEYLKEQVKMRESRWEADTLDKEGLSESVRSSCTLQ

[8] = tested on: MAP3K15, MAP3K5, MAP3K6; assay: KiNativ kinase panel; format: cell-based, human; conditions: 1 μM; MCF-7 Cells; Lys1; IAIKEIPER
[9] = target: T4, CK1g3 (Homo sapiens, UniProt Q9Y6M4); assay: KiNativ kinase panel; format: cell-based; conditions: 1 μM, MCF-7 Cells, Lys2
T4 construct: MCF7 cells were exposed to; endogenous in cells; host or cells: MCF7

[10] = tested on: MARK3, MARK4; assay: KiNativ kinase panel; format: cell-based, human; conditions: 1 μM; MCF-7 Cells; Lys1; EVAIKIIDK

T4 sequence (Q9Y6M4 whole entry): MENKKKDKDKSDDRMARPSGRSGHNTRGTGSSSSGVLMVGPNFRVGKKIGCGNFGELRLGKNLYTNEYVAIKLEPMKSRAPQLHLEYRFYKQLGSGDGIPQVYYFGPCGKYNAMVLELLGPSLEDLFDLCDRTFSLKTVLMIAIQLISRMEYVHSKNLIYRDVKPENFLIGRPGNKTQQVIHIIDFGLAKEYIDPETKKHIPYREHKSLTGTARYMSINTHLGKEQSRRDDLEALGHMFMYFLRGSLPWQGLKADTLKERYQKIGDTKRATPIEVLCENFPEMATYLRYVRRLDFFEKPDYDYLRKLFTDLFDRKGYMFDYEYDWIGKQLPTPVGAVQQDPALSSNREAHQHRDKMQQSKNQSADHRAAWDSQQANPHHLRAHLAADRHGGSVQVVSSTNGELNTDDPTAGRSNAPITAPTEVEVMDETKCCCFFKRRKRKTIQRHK

Compound: CO[C@H]1C[C@@H]2CC[C@@H](C)[C@@](O)(O2)C(=O)C(=O)N2CCCC[C@H]2C(=O)O[C@H]([C@H](C)C[C@@H]2CC[C@@H](OC(=O)NCCOCCOCCOCCOCCOCCOCCOCCOCCC(=O)NCCS(=O)(=O)c3ccc(C(=O)N4CCOc5ccc(-c6ccc(N)nc6)cc5C4)c(C)c3F)[C@H](OC)C2)C[C@@H](O)[C@H](C)/C=C(\C)[C@@H](O)[C@@H](OC)C(=O)[C@H](C)C[C@H](C)/C=C/C=C/C=C/1C [compound 40]
- KiNativ Kinase Panel Data ([1]; Lys1, NVNTGELAAIKVIK): -19.2
- KiNativ Kinase Panel Data ([1]; Lys2, DIKGANILLTDNGHVK): 69.9
- KiNativ Kinase Panel Data ([2]; DLKPQNLLINER): -31.2
- Tmax [3]: 2.3 ± 1.5 h
- t1/2 [3]: 3.8 ± 0.6 h
- AUClast ([3]; 1 mg/kg): 8.7 ± 1.2 µM·h
- KiNativ Kinase Panel Data ([4]; DLKPDNLLITSMGHIK): 22.5
- effect on tumor p4EBP1 levels [5]: dose-dependent, robust, and long-lasting inhibition
- MCF-7 tumor PD: dose proportional duration of >80% p4EBP1 inhibition [5]: 24 to 48 h
- KiNativ Kinase Panel Data ([6]; Lys1, GYVNNTTVAVKK): -35.0
- KiNativ Kinase Panel Data ([6]; Lys2, DIKSANILLDEAFTAK): -35.4
- KiNativ Kinase Panel Data ([7]; Lys1, EVVAIKCVAK): -22.8
- KiNativ Kinase Panel Data ([7]; Lys2, NISHLDLKPQNILLSSLEKPHLK): -5.4
- KiNativ Kinase Panel Data [8]: -4.5
- KiNativ Kinase Panel Data ([9]; DVKPENFLIGRPGNK): -6.6
- KiNativ Kinase Panel Data [10]: 13.2

Compound: CO[C@H]1C[C@@H]2CC[C@@H](C)[C@@](O)(O2)C(=O)C(=O)N2CCCC[C@H]2C(=O)O[C@H]([C@H](C)C[C@@H]2CC[C@@H](OC(=O)NCCOCCOCCOCCOCCOCCOCCOCCOCCC(=O)N3CCc4cc(Cn5nc(-c6ccc7oc(N)nc7c6)c6c(N)ncnc65)ccc4C3)[C@H](OC)C2)C[C@@H](O)[C@H](C)/C=C(\C)[C@@H](O)[C@@H](OC)C(=O)[C@H](C)C[C@H](C)/C=C/C=C/C=C/1C [compound 38]
- KiNativ Kinase Panel Data ([1]; Lys1, NVNTGELAAIKVIK): 12.2
- KiNativ Kinase Panel Data ([1]; Lys2, DIKGANILLTDNGHVK): -6.9
- KiNativ Kinase Panel Data ([2]; […]): 13.9
- AUC(0-t) ([3]; mouse, in vivo): 25.9 ± 3 µM·h
- Cmax ([3]; mouse, in vivo): 5670 ng/mL and 3.19 µM
- half-life ([3]; mouse, in vivo): 4.8 ± 0.4 h
- Tmax ([3]; mouse, in vivo, read-out: Tmax): 2 h
- KiNativ Kinase Panel Data ([4]; […]): 19.6
- effect on tumor p4EBP1 levels [5]: dose-dependent, prolonged, and profound inhibition
- MCF-7 tumor PD: dose proportional duration of >80% p4EBP1 inhibition [5]: 24 to 48 h
- KiNativ Kinase Panel Data ([6]; Lys1, GYVNNTTVAVKK): -7.0
- KiNativ Kinase Panel Data ([6]; Lys2, DIKSANILLDEAFTAK): -19.3
- KiNativ Kinase Panel Data ([7]; Lys1, […]): 0.5
- KiNativ Kinase Panel Data ([7]; Lys2, […]): 11.9
- KiNativ Kinase Panel Data [8]: 24.5
- KiNativ Kinase Panel Data ([9]; […]): 13.2
- KiNativ Kinase Panel Data [10]: 7.2
